The target in the assay is T1, human GnRH receptor (Homo sapiens, UniProt P30968).
T1 construct: The cDNA for the human GnRH receptor is cloned into the plasmid expression vector, pcDNA 3; expressed in transfected cells; host or cells: HEK 293 cells, stably transfected (pcDNA 3); membrane preparation
T1 sequence (P30968 1-328): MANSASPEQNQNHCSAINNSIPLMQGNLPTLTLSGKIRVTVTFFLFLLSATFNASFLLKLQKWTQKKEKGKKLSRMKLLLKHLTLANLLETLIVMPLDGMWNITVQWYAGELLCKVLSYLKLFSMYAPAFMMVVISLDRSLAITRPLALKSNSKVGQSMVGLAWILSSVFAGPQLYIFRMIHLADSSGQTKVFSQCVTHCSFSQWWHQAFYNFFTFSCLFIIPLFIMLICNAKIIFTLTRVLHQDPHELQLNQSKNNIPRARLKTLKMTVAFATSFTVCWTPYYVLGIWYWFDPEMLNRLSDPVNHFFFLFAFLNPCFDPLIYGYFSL
Nature of the assay: GnRH receptor competitive radioligand binding assay (125I-GnRH-A, HEK 293 cell membranes). The note with it: compound at 10 μM. The source says:
The cDNA for the human GnRH receptor is cloned into the plasmid expression vector, pcDNA 3 (In Vitrogen), and stably transfected in HEK 293 cells (a cell line developed by Dr. Stuart Sealfon, Mount Sinai Medical School, New York, N.Y.).
The human GnRH receptor (hGnRH) is cloned into pcDNA 3 (In Vitrogen), which provides high-level expression and a neomycin resistance marker. Lipofectamine (GIBCO BRL) is used to transfect HEK 293 cells with plasmid DNA. This method involves mixing the plasmid and reagent in serum-free medium, allowing DNA-liposome complexes to form, and overlaying cells with this solution. The HEK 293 cells are plated (seeded) on a 10-cm tissue culture dish at a density of 3×10^6 cells/dish the day before transfection. For each plate, 8 μg DNA plus 0.8 mL serum-free medium is mixed with 48 μL lipofectamine plus 0.8 mL serum-free medium, followed by incubation for 30 minutes at room temperature to allow DNA-liposome complexes to form. Serum-free medium is added to give a final volume of 6 mL/plate. The cells are rinsed twice with serum-free medium and overlayed with the DNA-liposome mixture. Five hours after transfection, an equal volume (6 mL) of medium containing 20% FBS (fetal bovine serum) is added. The cells are fed with fresh complete medium 18-24 hours after transfection. The cells are split 72 hours following transfection, at densities of 1:10 and 1:20. Stable tranformants are selected for by growth of the cells in antibiotic containing medium (G418, Sigma Chemical Company (also known as Geneticin)). Colonies are isolated and tested for receptor expression by radioligand binding and by measuring phosphoinositol turnover.
HEK 293 cells stably transfected with human GnRH receptors as described above are grown in MEM (minimal essential medium, available from Sigma Chemical Company) supplemented with 0.1% G418 (Sigma Chemical Company). Cells are homogenized in buffer A containing 50 mM Tris (pH 74.), 0.32M sucrose, 2 mM ethyleneglycol-bis(β-aminoethyl)-N,N,N′,N′-tetraacetic acid (EGTA), 1 mM phenylmethylsulfonyl fluoride (PMSF), 5 μg/mL aprotinen, 5 μg/mL Pepstatin A, and 1 μg/mL leupeptin. The homogenized cells are centrifuged at 4° C. at 20,000×g for 25 minutes, resuspended in buffer A, and recentrifuged at 4° C. at 20,000×g for an additional 25 minutes. Total membrane protein is determined with a BCA kit (Pierce, Rockford, Ill.). Membranes are stored at −70° C. at a final membrane protein concentration of 5 mg/mL.
The radioiodinated agonist analog of GnRH, [des-Gly^10, D-Ala^8]GnRH ethylamide (GnRH-A), is used as the labeled ligand. One μg of GnRH-A diluted in 0.1M acetic acid is added to an lodogen®-coated borosilicate glass tube pierce) containing 35 μL of 0.05M phosphate buffer (pH 7.4-7.6) and 1 mCi of Na[^125I]. The reaction mixture is vortexed and incubated for 1 minute at room temperature. After one minute, the mixture is vortexed again and allowed to incubate for an additional minute. Two mL of 0.5M acetic acid/1% BSA is added to the reaction tube, and the mixture is added to a C18 Sep-Pak cartridge. The cartridge is washed with subsequent washes of 5 mL H2O and 5 mL 0.5M acetic acid, and then eluted with 5×1 mL of 60% CH3CN/40% 0.5M acetic acid. The eluant is diluted with 3×volume of HPLC buffer A (0.1% TFA in H2O) and loaded onto a C18 column. The iodinated product is eluted over 20-25 minutes with a gradient of 25-100% CH3CN containing 0.1% TFA. The radioactive fractions (750 μL/fraction) are collected into clean polypropylene tubes containing 10 μL of 10% BSA. Fractions are assessed for biological activity by radioligand binding. Active fractions are utilized to screen the compounds for competitive binding assays.
HEK 293 cell membranes stably expressing hGnRHR (human GnRH receptors) are diluted to 0.5-1.0 mg/mL with assay buffer containing 50 mM HEPES (pH 7.4), 1 mM ethylenediarninetetraacetic acid (EDTA), 2.5 mM MgCl2, and 0.1% BSA. […]

Where [1] appears, read: average of 1st and 2nd test, read-out: Average % Remaining (percent of specific binding remaining).
[2] abbreviates: crude compounds, 125I-GnRH-A, lower value = higher inhibition, read-out: % Remaining 1st Test (percent of specific binding remaining).
Where [3] appears, read: crude compounds, 125I-GnRH-A, lower value = higher inhibition, read-out: % Remaining 2nd Test (percent of specific binding remaining).

Read-outs that look alike come from different tables or passages of the source.

On to `Cc1cc2c(cc1CN(CCCCNC(=N)N)C(=O)c1ccco1)C(C)(C)CCC2(C)C` [Compound 30], for which the remaining activity at 10 µM is, setting by setting: under setting [1], 33%; under setting [2], 29%; under setting [3], 37%.
Take `Cc1cc2c(cc1CN(CCCCNC(=N)N)C(=O)c1ccccc1)C(C)(C)CCC2(C)C` [Compound 31]: the remaining activity at 10 µM is, setting by setting: under setting [1], 45%; under setting [2], 44%; under setting [3], 45%.
Regarding `Cc1cc2c(cc1CN(CCCCNC(=N)N)C(=O)c1ccc(Cl)nc1)C(C)(C)CCC2(C)C` [Compound 32], the remaining activity at 10 µM is 57% under setting [1], 52% under setting [2] and 61% under setting [3].
On the same counts, the results for `N=C(N)NCCCCN(Cc1ccc(OCc2ccccc2)c(OCc2ccccc2)c1)C(=O)C1CCCCC1` [Compound 33] are 59%, 52% and 65%.
The corresponding values for `N=C(N)NCCCCN(Cc1ccc(OCc2ccccc2)c(OCc2ccccc2)c1)C(=O)c1cccc2ccccc12` [Compound 34] are 51%, 45% and 57%.
On the same counts, the results for `CC(=O)N(CCCCNC(=N)N)Cc1ccc(OCc2ccccc2)c(OCc2ccccc2)c1` [Compound 35] are 52%, 50% and 54%.
In the case of `CN(C)CCCOc1ccc(CN(Cc2cccc(CNC(=N)N)c2)C(=O)c2ccc3ccccc3c2)cc1` [Compound 36], the remaining activity at 10 µM runs as follows: under setting [1], 58%; under setting [2], 56%; under setting [3], 59%.
On to `N=C(N)NCc1cccc(CN(CC23CC=CCC2C2CC=CCC2O3)C(=O)C2CCCCC2)c1` (stereo not drawn) [Compound 37], for which the remaining activity at 10 µM reads like this: under setting [1], 60%; under setting [2], 59%; under setting [3], 61%.
On the same counts, the results for `N=C(N)NCc1cccc(CN(CC23CC=CCC2C2CC=CCC2O3)C(=O)c2cccc3ccccc23)c1` (stereo not drawn) [Compound 38] are 57%, 59% and 55%.
On to `N=C(N)NCc1cccc(CN(CC23CC=CCC2C2CC=CCC2O3)C(=O)c2ccc3ccccc3c2)c1` (stereo not drawn) [Compound 39], for which the remaining activity at 10 µM is, setting by setting: under setting [1], 46%; under setting [2], 46%; under setting [3], 45%.
Turning to `Cc1cc2c(cc1CN(Cc1cccc(CNC(=N)N)c1)C(=O)c1ccco1)C(C)(C)CCC2(C)C` [Compound 40], the remaining activity at 10 µM reads like this: under setting [1], 12%; under setting [2], 12%; under setting [3], 11%.
As to `CC(C)(C)c1ccc(CN(CC2CCCC(CNC(=N)N)C2)C(=O)c2cccc3ccccc23)cc1` (stereo not drawn) [Compound 41], the remaining activity at 10 µM runs as follows: under setting [1], 45%; under setting [2], 46%; under setting [3], 43%.
The corresponding values for `CC(C)(C)c1ccc(CN(CC2CCCC(CNC(=N)N)C2)C(=O)c2ccc3ccccc3c2)cc1` (stereo not drawn) [Compound 42] are 58%, 54% and 62%.
The corresponding values for `CC(C)(C)c1ccc(CN(CC2CCCC(CNC(=N)N)C2)C(=O)c2cccs2)cc1` (stereo not drawn) [Compound 43] are 50%, 47% and 53%.
The corresponding values for `CC(C)(C)c1ccc(CN(CC2CCCC(CNC(=N)N)C2)C(=O)c2ccccc2)cc1` (stereo not drawn) [Compound 44] are 60%, 58% and 62%.
Regarding `CN(C)CCCOc1ccc(CN(CC2CCCC(CNC(=N)N)C2)C(=O)c2ccc3ccccc3c2)cc1` (stereo not drawn) [Compound 46], the remaining activity at 10 µM turned out to be 49% under setting [1], 45% under setting [2] and 52% under setting [3].
On the same counts, the results for `N=C(N)NCC1CCCC(CN(CC23CC=CCC2C2CC=CCC2O3)C(=O)c2cccc3ccccc23)C1` (stereo not drawn) [Compound 47] are 42%, 39% and 44%.
The corresponding values for `N=C(N)NCC1CCCC(CN(CC23CC=CCC2C2CC=CCC2O3)C(=O)c2ccc3ccccc3c2)C1` (stereo not drawn) [Compound 48] are 44%, 48% and 40%.
With `N=C(N)NCC1CCCC(CN(CC23CC=CCC2C2CC=CCC2O3)C(=O)c2ccc(Cl)nc2)C1` (stereo not drawn) [Compound 49], the remaining activity at 10 µM under setting [1] turned out to be 58%, the remaining activity at 10 µM under setting [2] is 53% and the remaining activity at 10 µM under setting [3] is 62%.
The corresponding values for `N=C(N)NCC1CCCC(CN(Cc2cnc3ccccc3c2)C(=O)c2cccc3ccccc23)C1` (stereo not drawn) [Compound 50] are 55%, 47% and 62%.
The corresponding values for `N=C(N)NCC1CCCC(CN(Cc2cnc3ccccc3c2)C(=O)c2ccc3ccccc3c2)C1` (stereo not drawn) [Compound 51] are 56%, 48% and 63%.
With `Cc1cc2c(cc1CN(CC1CCCC(CNC(=N)N)C1)C(=O)C1CCCCC1)C(C)(C)CCC2(C)C` (stereo not drawn) [Compound 52], the remaining activity at 10 µM is, setting by setting: under setting [1], 58%; under setting [2], 57%; under setting [3], 59%.
For `Cc1cc2c(cc1CN(CC1CCCC(CNC(=N)N)C1)C(=O)c1cccc3ccccc13)C(C)(C)CCC2(C)C` (stereo not drawn) [Compound 53], the remaining activity at 10 µM amounted to 51% under setting [1], 46% under setting [2] and 55% under setting [3].
With `Cc1cc2c(cc1CN(CC1CCCC(CNC(=N)N)C1)C(=O)c1ccc3ccccc3c1)C(C)(C)CCC2(C)C` (stereo not drawn) [Compound 54], the remaining activity at 10 µM turned out to be 54% under setting [1], 49% under setting [2] and 59% under setting [3].
On the same counts, the results for `Cc1cc2c(cc1CN(CC1CCCC(CNC(=N)N)C1)C(=O)c1ccco1)C(C)(C)CCC2(C)C` (stereo not drawn) [Compound 55] are -2%, -2% and -1%.
`Cc1cc2c(cc1CN(CC1CCCC(CNC(=N)N)C1)C(=O)c1ccccc1)C(C)(C)CCC2(C)C` (stereo not drawn) [Compound 56]: the remaining activity at 10 µM is 58% under setting [1], 56% under setting [2] and 60% under setting [3].
